Test results as given in patent US20100203123A1, “METHODS FOR IMPROVING COGNITIVE FUNCTION AND DECREASING HEART RATE” (MARTEK BIOSCIENCES CORPORATION, priority 2009, published 2010).

Key:
Assay type in all cases: in vivo, human
[1] = Plasma phospholipid fatty acid levels
Method: (§1) The DHA group was provided 800 mg soft-gelatin capsules, each containing about 300 mg DHA as a triglyceride from algal oil (DHASCO®-S oil, 40% DHA). In addition to 40% DHA, DHASCO®-S oil was formulated to contain 40-60% saturated, mono- and polyunsaturated fatty acids, 400 ppm ascorbyl palmitate, 2000 ppm mixed tocopherols, 2000 ppm rosemary extract, 3% orange-flavoring, and 1% natural masking agent. Subjects were instructed to take three 800 mg capsules/day, i.e., about 900 mg DHA/day.
Blood samples of the subjects were collected at baseline and at the week 24 or “end of study” visit to determine phospholipid levels. Samples were collected into 10 ml vacutainer EDTA tubes, centrifuged at 3000 rpm and plasma was stored at −80° C. until analyzed. Plasma phospholipid fatty acids were analyzed as described previously. See, e.g., Arterburn, L. M., et al., Lipids 42:1011-1024 (2007). The fatty acid profiles were expressed as a percent of the total […] of fatty acid (weight percent).

[2] = Vital signs (heart rate, blood pressure, body weight); details: about 900 mg/d, 24 weeks
Method: The effects of DHA (about 900 mg/day) versus placebo was tested to determine whether cognitive measures of memory, attention, and executive function were improved, utilizing the Cambridge Neuropsychological Test Automated Battery (CANTAB) cognitive battery, in healthy elderly subjects with a mild memory complaint. One objective of the study was to determine the effect of DHA administration versus placebo on improving cognitive functions (i.e., working memory, memory retention, attention, processing speed, and executive function) in healthy elderly with a subjective memory complaint. Another objective of the study included determining the effects of DHA on visual acuity, levels of plasma phospholipids, and evaluating the safety and tolerability of the DHA dose administered.
as §1
Pre-baseline testing with the CANTAB occurred to serve as a training session and to familiarize the subject with the computer system. Morris R, et al., Computer Aided Assessment of Dementia: Comparative Studies of Neuropsychological Deficits in Alzheimer Type Dementia and Parkinson's Disease (1987). Seven (+/−2) days following this pre-baseline testing, baseline measurements were taken, including baseline laboratory measures, vital signs, and the CANTAB cognitive battery. At the baseline session, subjects were stratified based on age (55-69; ≧70) and randomly assigned to receive about 900 mg DHA, or placebo. […] Compliance was assessed by food frequency questionnaires, returned capsule counts, and by plasma DHA levels (taken at 24 weeks). […]

[3] = tested on: healthy elderly subjects with a mild memory complaint; assay: CANTAB Pattern Recognition Memory (PRM) test; details: about 900 mg/d, 24 weeks
Method: The effects of DHA (about 900 mg/day) versus placebo was tested to determine whether cognitive measures of memory, attention, and executive function were improved, utilizing the Cambridge Neuropsychological Test Automated Battery (CANTAB) cognitive battery, in healthy elderly subjects with a mild memory complaint. One objective of the study was to determine the effect of DHA administration versus placebo on improving cognitive functions (i.e., working memory, memory retention, attention, processing speed, and executive function) in healthy elderly with a subjective memory complaint. […]
The secondary efficacy endpoints included: • CANTAB tests of executive function and planning: Spatial Working Memory […] and Stockings of Cambridge (SOC) • CANTAB Verbal Recognition Memory test (VRM) • CANTAB Pattern Recognition test (PRM) • Visual acuity (measured by Snellen Eye chart; corrected vision) • Memory Functioning Questionnaire: Frequency of Forgetting-10 (Self-rating scale) • Activities of Daily Living (ADCS-ADL PI) scale (Self-rating) • Clinical measures of cognitive function and computerized assessments were administered by (CANTAB) certified examiners at each site blinded to the subject's treatment. • Description of CANTAB Battery of tests […]

In the case of `CC/C=C\C/C=C\C/C=C\C/C=C\C/C=C\C/C=C\CCC(=O)O` [DHA, (all-Z)-4,7,10,13,16,19-docosahexaenoic acid], the “plasma phospholipid DHA change, diff. score versus placebo” value ([1]; 24 weeks, p<0.001) is reported as 3.15±0.16, the “plasma phospholipid DPAn-6, mean change” value ([1]; 24 weeks, placebo −0.004, p<0.001) is reported as 0.37 weight % and the “plasma phospholipid EPA, mean change” value ([1]; 24 weeks, placebo −0.06, p<0.001) is reported as 0.16 weight %. For the same compound, the “plasma phospholipid arachidonic acid (ARA), mean change from baseline” value ([1]; 24 weeks, placebo −0.12, p<0.001) was −1.37 weight %, the “plasma phospholipid ARA levels, decrease” value ([1]; about 900 mg/day, six months) was 1.4 weight % and the “plasma phospholipid DHA, increase from baseline” value ([1]; week 24, about 900 mg/day, placebo −0.08) was 3.2 weight %. The “plasma phospholipid DHA level after treatment” value ([1]; week 24, baseline 3.2 weight %, p<0.001) was 6.4 weight %, the “blood pressure, DHA versus placebo” value [2] was “remained unchanged” and the “body weight, DHA versus placebo” value [2] was “remained unchanged”. For the same compound, the “heart rate, change from baseline” value ([2]; placebo −1 BPM, p<0.03) was −3.2 BPM and the “CANTAB Pattern Recognition test responses, DHA versus placebo” value [3] was “not significantly different”.
